Values of other authors, collected in US10279004B2, “Methods and compositions for enhancing or maintaining fertility” (Quality IP Holdings, LLC, priority 2016, dated 2019).

Assays:
hGH = conditions: for effect on hGH: other amino acids, literature
[1] = subcutaneous injection of 0.06 IU in hGH deficient subjects

Compound	effect on hGH (hGH)	also measured
CSCC[C@H](N)C(=O)O [methionine]	marked increases in hGH	–
hGH: human growth hormone, available in injectable forms	–	probability of clinical pregnancy (administration during ovarian stimulation phase of IVF cycles): increase the probability of clinical pregnancy; body composition in hGH-deficient adults (within months of hGH treatment): gains in lean body mass, skin thickness, and muscle mass are observed; mean level of hGH reached [1]: 0.4 ng/mL
N=C(N)NCCC[C@H](N)C(=O)O [arginine]	–	elevation of serum hGH levels (hGH; 30 g in males): 8.6 fold; increase in hGH levels (hGH; intravenous infusion of 183 mg/kg body weight in females): > 20 fold
NCCC[C@H](N)C(=O)O [ornithine]	marked increases in hGH	–
N[C@@H](Cc1c[nH]cn1)C(=O)O [histidine]	marked increases in hGH	–
N[C@@H](Cc1ccccc1)C(=O)O [phenylalanine]	marked increases in hGH	–
NCCCC[C@H](N)C(=O)O [lysine]	marked increases in hGH	–
